Data on one compound can be found in patent US12312621B2, “Reprogramming urokinase into an antibody-recruiting anticancer agent” (YALE UNIVERSITY, priority 2011, dated 2025).

SMILES strings stand for the structures.

The data set is described as follows: Storage stability of stock solution in water. The data set is classed as physicochemical. How it is done: Synthesis of guanidinium 1 Into a flask were added crude peptide 1v (0.120 mmol, 1 equiv), and a mixture of TFA, TiPS, and water (38:1:1, 2 mL, 0.06 M, producing a homogeneous solution). The mixture was stirred in the dark (1.5 h) and diluted with toluene (3 mL). Volatiles were removed under reduced pressure (2×toluene azeotrope). The crude mixture was dissolved in water (2 mL) and washed with EtOAc (2×2 mL). The aqueous phase was purified by semi-preparative RP-HPLC (C18 column, water+0.1% TFA with 15-35% MeCN over 30 min, product isomers elute at 14.5 and 15.4 min) to yield pure guanidinium 1 (58 mg, 0.049 mmol, 41% yield) as a mixture (approximately 1:1) of regioisomers at fluorescein and as a yellow solid. The regioisomeric ratio was measured by ^1H NMR. ^1H NMR signals were assigned by ^1H-^1H COSY.
Synthesis of guanidinium 2 Into a flask were added crude peptide 2g (0.150 mmol, 1 equiv), and a mixture of TFA, TiPS, and water (38:1:1, 2 mL, 0.07 M). The mixture was stirred (1.5 h) and diluted with toluene (3 mL). Volatiles were removed under reduced pressure (2×toluene azeotrope). The crude mixture was dissolved in water (2 mL) and washed with EtOAc (2×2 mL). […]

Regarding `N=C(N)NCCC[C@H](NC(=O)CNC(=O)[C@@H](N)CCC(=O)NCCCOCCOCCOCCCNc1ccc([N+](=O)[O-])cc1[N+](=O)[O-])C(=O)CCl` [compound 2], the “stability of stock solution” value is on record as “stable for at least several months”.
